Test results: ChEMBL document CHEMBL4425165, “Discovery of Pyrazolo[1,5-a]pyrimidine TTK Inhibitors: CFI-402257 is a Potent, Selective, Bioavailable Anticancer Agent” (ACS Med Chem Lett, 2016)
In brackets after ≈: the same amount, converted by molar mass.

Legend:
MDA-MB-468 = test: Growth inhibition of human MDA-MB-468 cells measured after 5 days by sulforhodamine B assay; type: functional; conditions: MDA-MB-468, 120 h
HCT-116 = test: Growth inhibition of human HCT116 cells measured after 5 days by sulforhodamine B assay; type: functional; conditions: HCT-116, 120 h
OVCAR-3 = test: Growth inhibition of human OVCAR3 cells measured after 5 days by sulforhodamine B assay; type: functional; conditions: OVCAR-3, 120 h
[1] = Solubility of the compound at pH 7.4; type: physicochemical; conditions: buffer
[2] = Solubility of the compound at pH 2; type: physicochemical; conditions: buffer
[3] = Dissociation constant, pKa of the compound; type: physicochemical
[4] = Cmax in athymic CD-1 nude mouse at 10 mg/kg, po by LC-MS/MS analysis; type: ADME, organism-based; design: dose 10 mg/kg, route oral; conditions: in vivo
[5] = AUC in athymic CD-1 nude mouse at 10 mg/kg, po by LC-MS/MS analysis; type: ADME, organism-based; conditions: in vivo
[6] = molecular target: T1, Dual specificity protein kinase TTK (Homo sapiens, UniProt P33981)
T1 sequence (P33981 whole entry): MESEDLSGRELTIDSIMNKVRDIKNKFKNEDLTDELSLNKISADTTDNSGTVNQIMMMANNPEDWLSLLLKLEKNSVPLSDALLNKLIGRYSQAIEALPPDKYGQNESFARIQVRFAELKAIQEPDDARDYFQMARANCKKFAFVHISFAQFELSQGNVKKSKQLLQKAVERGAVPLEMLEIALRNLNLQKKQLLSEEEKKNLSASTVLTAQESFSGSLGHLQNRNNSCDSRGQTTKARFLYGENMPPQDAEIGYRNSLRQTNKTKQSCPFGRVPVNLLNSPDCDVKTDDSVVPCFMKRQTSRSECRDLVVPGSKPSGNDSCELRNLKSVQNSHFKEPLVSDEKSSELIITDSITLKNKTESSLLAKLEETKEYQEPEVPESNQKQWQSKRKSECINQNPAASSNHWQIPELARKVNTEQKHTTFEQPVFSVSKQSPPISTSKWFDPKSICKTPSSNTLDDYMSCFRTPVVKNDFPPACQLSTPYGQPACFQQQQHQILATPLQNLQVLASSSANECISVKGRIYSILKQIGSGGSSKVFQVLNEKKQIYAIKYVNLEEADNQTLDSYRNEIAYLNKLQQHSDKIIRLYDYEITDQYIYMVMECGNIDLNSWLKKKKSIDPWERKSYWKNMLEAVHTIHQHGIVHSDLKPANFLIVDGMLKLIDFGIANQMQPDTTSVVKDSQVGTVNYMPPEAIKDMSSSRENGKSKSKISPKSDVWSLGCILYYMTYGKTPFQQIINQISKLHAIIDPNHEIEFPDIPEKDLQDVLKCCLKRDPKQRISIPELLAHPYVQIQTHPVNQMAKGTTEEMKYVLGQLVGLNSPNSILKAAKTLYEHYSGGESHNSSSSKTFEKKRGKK

| Compound | GI50 (MDA-MB-468) | GI50 (HCT-116) | GI50 (OVCAR-3) | solubility [1] | solubility [2] | pKa [3] | Cmax [4] | AUC [5] | IC50 [6] |
| --- | --- | --- | --- | --- | --- | --- | --- | --- | --- |
| Cc1cc(-c2cnn3c(NC[C@H]4C[C@H](O)C4)cc(NC4CCCC4)nc23)ccc1C(=O)NC1CC1 | 35 nM | 14 nM | 68 nM | 5.4 µg/mL (≈ 11.4 µM) | 930 µg/mL (≈ 1960 µM) | 3.7 | 180 ng/mL | 130 ng·h/mL | 2.4 nM |
| Cc1cc(-c2cnn3c(NC[C@H]4C[C@](C)(O)C4)cc(NC4CCCC4)nc23)ccc1C(=O)NC1CC1 | 130 nM | 49 nM | 210 nM | 3.6 µg/mL (≈ 7.37 µM) | 110 µg/mL (≈ 225 µM) | 3.2 |  |  | 5.3 nM |
| Cc1cc(-c2cnn3c(NCC4CCOCC4)nc(Oc4ccccc4)nc23)ccc1C(=O)NC1CC1 | 160 nM | 14 nM | 190 nM | 1.1 µg/mL (≈ 2.21 µM) | 1.5 µg/mL (≈ 3.01 µM) | 1.6 | 890 ng/mL | 1500 ng·h/mL | 1.4 nM |
| Cc1cc(-c2cnn3c(NCC4CCOCC4)cc(NC4CCCC4)nc23)ccc1C(=O)NC1CC1 | 36 nM | 15 nM | 90 nM | 3.1 µg/mL (≈ 6.34 µM) | 88 µg/mL (≈ 180 µM) | 3.2 | 2300 ng/mL | 4000 ng·h/mL | 3.2 nM |
| Cc1cc(-c2cnn3c(NCC4CCOCC4)cc(N[C@H]4CCC[C@H]4O)nc23)ccc1C(=O)NC1CC1 | 62 nM | 59 nM | 79 nM | 23 µg/mL (≈ 45.6 µM) | 480 µg/mL (≈ 951 µM) | 3.2 | 1300 ng/mL | 1500 ng·h/mL | 2.7 nM |
| Cc1cc(-c2cnn3c(NCC4CCOCC4)cc(N[C@@H]4CCCC[C@H]4O)nc23)ccc1C(=O)NC1CC1 | 180 nM | 130 nM | 340 nM | 13 µg/mL (≈ 25.1 µM) | 410 µg/mL (≈ 790 µM) | 3.3 |  |  | 13 nM |
| Cc1cc(-c2cnn3c(NC[C@H]4C[C@](C)(O)C4)cc(Oc4cccnc4)nc23)ccc1C(=O)NC1CC1 | 71 nM | 40 nM | 100 nM | 3.3 µg/mL (≈ 6.62 µM) | 560 µg/mL (≈ 1120 µM) | 3.7 | 1800 ng/mL | 3900 ng·h/mL |  |
| Cc1cc(-c2cnn3c(NC[C@H]4C[C@@](C)(O)C4)cc(NC4CCCC4)nc23)ccc1C(=O)NC1CC1 | 57 nM | 14 nM | 87 nM | 3.6 µg/mL (≈ 7.37 µM) | 110 µg/mL (≈ 225 µM) | 3.2 | 2900 ng/mL | 7300 ng·h/mL | 2.6 nM |
| Cc1cc(-c2cnn3c(NC[C@H]4CC[C@H](O)CC4)cc(Oc4cccnc4)nc23)ccc1C(=O)NC1CC1 | 160 nM | 50 nM | 270 nM | 2.1 µg/mL (≈ 4.1 µM) | 360 µg/mL (≈ 702 µM) | 3.7 | 190 ng/mL | 700 ng·h/mL | 2.8 nM |
| Cc1cc(-c2cnn3c(NCCN4CCOCC4)cc(Oc4ccccc4)nc23)ccc1C(=O)NC1CC1 | 18 nM | 11 nM | 24 nM | 1.6 µg/mL (≈ 3.12 µM) | 12000 µg/mL (≈ 23400 µM) | 6.7 | 1000 ng/mL | 2700 ng·h/mL | 3 nM |
| Cc1cc(-c2cnn3c(NCC4CCOCC4)cc(N[C@H]4CCCC[C@H]4O)nc23)ccc1C(=O)NC1CC1 | 3 nM | 1 nM | 9 nM | 13 µg/mL (≈ 25.1 µM) | 410 µg/mL (≈ 790 µM) | 3.3 | 2200 ng/mL | 2400 ng·h/mL | 2 nM |
| CC[C@H](CO)Nc1cc(NCC2CCOCC2)n2ncc(-c3ccc(C(=O)NC4CC4)c(C)c3)c2n1 | 480 nM | 210 nM | 1100 nM | 27 µg/mL (≈ 54.8 µM) | 1100 µg/mL (≈ 2230 µM) | 3.5 |  |  | 21 nM |
| Cc1cc(-c2cnn3c(NC[C@H]4C[C@H](O)C4)cc(Oc4cccnc4)nc23)ccc1C(=O)NC1CC1 | 2 nM | 2 nM | 11 nM | 5.4 µg/mL (≈ 11.1 µM) | 930 µg/mL (≈ 1920 µM) | 3.7 | 120 ng/mL | 130 ng·h/mL | 1.1 nM |
| Cc1cc(-c2cnn3c(NCC4CCOCC4)cc(Oc4ccccc4)nc23)ccc1C(=O)NC1CC1 | 13 nM | 3 nM | 22 nM | 0.5 µg/mL (≈ 1 µM) | 12 µg/mL (≈ 24.1 µM) | 3.4 | 560 ng/mL | 3100 ng·h/mL | 2.5 nM |
| Cc1cc(-c2cnn3c(NC[C@H]4CC[C@@H](O)CC4)cc(Oc4cccnc4)nc23)ccc1C(=O)NC1CC1 | 19 nM | 17 nM | 43 nM | 2.1 µg/mL (≈ 4.1 µM) | 360 µg/mL (≈ 702 µM) | 3.7 | 750 ng/mL | 3400 ng·h/mL | 1.8 nM |
| Cc1cc(-c2cnn3c(NCC4CCOCC4)nc(NC4CCCC4)nc23)ccc1C(=O)NC1CC1 | 320 nM | 130 nM | 480 nM | 3.6 µg/mL (≈ 7.35 µM) | 28 µg/mL (≈ 57.2 µM) | 2.7 | 430 ng/mL | 530 ng·h/mL | 5.8 nM |
